# Source: patent US10196668B2, “Reagents and methods for screening MPS I, II, IIIA, IIIB, IVA, VI, and VII” (University of Washington through its Center for …, priority 2013, dated 2019)
# Values joined by “and” are separate entries in the source; they are usually repeats but may differ in a detail not shown here. Equal entries are not always repeated.
# T1: Recombinant human hexosaminidase A (Homo sapiens, UniProt P06865)
# T1 sequence (P06865 89-529): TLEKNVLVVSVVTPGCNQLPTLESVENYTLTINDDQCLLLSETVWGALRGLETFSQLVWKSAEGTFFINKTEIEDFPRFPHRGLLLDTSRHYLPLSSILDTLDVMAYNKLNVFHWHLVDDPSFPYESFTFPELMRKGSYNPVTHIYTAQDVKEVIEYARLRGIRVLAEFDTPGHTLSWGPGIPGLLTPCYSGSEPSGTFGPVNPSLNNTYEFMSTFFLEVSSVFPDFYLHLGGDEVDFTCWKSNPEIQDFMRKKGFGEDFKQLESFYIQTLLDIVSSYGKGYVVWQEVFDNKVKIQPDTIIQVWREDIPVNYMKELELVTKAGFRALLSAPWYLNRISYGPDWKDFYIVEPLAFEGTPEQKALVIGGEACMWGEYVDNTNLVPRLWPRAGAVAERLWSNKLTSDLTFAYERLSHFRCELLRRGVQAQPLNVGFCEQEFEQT
# T1 sequence (P07686 122-556 partner): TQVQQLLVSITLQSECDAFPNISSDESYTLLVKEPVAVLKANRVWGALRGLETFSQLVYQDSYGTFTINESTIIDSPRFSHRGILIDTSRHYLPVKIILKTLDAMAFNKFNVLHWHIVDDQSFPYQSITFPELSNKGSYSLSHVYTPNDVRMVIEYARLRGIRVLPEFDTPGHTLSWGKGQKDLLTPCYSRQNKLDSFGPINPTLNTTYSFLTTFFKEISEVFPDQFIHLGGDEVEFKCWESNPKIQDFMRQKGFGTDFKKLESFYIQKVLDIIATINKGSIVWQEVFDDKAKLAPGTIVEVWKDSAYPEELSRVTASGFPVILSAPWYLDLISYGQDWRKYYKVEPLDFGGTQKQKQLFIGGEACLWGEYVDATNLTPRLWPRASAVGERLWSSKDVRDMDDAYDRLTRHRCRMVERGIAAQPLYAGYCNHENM
# T2: human hexosaminidase A (Homo sapiens, UniProt P06865+P07686)
# T2 construct: from tissue; host or cells: dried blood spot from a random newborn
# T2 sequence (P06865 89-529): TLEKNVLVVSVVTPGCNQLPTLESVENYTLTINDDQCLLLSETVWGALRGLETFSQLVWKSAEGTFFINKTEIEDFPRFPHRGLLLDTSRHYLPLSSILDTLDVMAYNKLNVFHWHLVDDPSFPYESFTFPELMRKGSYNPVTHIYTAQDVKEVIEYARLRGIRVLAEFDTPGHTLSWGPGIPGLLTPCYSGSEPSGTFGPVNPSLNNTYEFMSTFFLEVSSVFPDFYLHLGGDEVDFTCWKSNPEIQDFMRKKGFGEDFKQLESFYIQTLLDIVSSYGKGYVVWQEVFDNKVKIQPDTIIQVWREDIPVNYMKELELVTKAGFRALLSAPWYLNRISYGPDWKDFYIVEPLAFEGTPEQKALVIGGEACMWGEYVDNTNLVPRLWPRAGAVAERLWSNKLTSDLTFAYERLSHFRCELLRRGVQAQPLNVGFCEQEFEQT
# T2 sequence (P07686 122-556): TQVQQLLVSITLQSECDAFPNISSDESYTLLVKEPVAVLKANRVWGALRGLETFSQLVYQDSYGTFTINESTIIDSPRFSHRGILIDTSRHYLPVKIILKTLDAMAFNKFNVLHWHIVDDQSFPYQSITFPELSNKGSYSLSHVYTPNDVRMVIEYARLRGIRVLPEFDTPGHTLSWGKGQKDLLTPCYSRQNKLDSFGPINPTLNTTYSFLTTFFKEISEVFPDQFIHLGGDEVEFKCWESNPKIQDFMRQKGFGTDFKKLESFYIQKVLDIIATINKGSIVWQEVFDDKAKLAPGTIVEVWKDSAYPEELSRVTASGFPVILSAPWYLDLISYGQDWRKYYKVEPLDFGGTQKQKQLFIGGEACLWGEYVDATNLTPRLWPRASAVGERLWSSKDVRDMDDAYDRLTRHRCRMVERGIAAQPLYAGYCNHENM
# T3: iduronic acid 2-sulfatase (Homo sapiens, UniProt P22304)
# T3 construct: from tissue; host or cells: dried blood spot (3 mm punch)
# T3 sequence (P22304 34-550): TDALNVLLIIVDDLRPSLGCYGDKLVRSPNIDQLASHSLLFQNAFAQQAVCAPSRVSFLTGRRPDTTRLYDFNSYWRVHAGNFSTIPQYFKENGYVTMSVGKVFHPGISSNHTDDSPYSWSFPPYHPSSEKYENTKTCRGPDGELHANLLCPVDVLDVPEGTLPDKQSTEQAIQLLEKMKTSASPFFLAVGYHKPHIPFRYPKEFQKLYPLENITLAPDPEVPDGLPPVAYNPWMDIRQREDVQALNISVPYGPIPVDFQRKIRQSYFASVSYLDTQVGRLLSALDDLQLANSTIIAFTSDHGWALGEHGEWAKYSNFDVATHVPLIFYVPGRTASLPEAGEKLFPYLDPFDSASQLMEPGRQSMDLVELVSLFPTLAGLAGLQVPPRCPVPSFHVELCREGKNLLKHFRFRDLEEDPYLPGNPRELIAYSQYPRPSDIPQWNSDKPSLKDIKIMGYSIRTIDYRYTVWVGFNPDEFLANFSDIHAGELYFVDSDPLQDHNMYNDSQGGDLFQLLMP
# B1: iduronidase: human alpha-L-iduronidase (a glycohydrolase) obtained by overexpression in mammalian cells, second enzyme (protein, UniProt P35475 28-653, looked up)
# Alpha-L-iduronidase: APHLVHVDAARALWPLRRFWRSTGFCPPLPHSQADQYVLSWDQQLNLAYVGAVPHRGIKQVRTHWLLELVTTRGSTGRGLSYNFTHLDGYLDLLRENQLLPGFELMGSASGHFTDFEDKQQVFEWKDLVSSLARRYIGRYGLAHVSKWNFETWNEPDHHDFDNVSMTMQGFLNYYDACSEGLRAASPALRLGGPGDSFHTPPRSPLSWGLLRHCHDGTNFFTGEAGVRLDYISLHRKGARSSISILEQEKVVAQQIRQLFPKFADTPIYNDEADPLVGWSLPQPWRADVTYAAMVVKVIAQHQNLLLANTTSAFPYALLSNDNAFLSYHPHPFAQRTLTARFQVNNTRPPHVQLLRKPVLTAMGLLALLDEEQLWAEVSQAGTVLDSNHTVGVLASAHRPQGPADAWRAAVLIYASDDTRAHPNRSVAVTLRLRGVPPGPGLVYVTRYLDNGLCSPDGEWRRLGRPVFPTAEQFRRMRAAEDPVAAAPRPLPAGGRLTLRPALRLPSLLLVHVCARPEKPPGQVTRLRALPLTQGQLVLVWSDEHVGSKCLWTYEIQFSQDGKAYTPVSRKPSTFNLFVFSPDTGAVSGSYRVRALDYWARPGPFSDPVPYLEVPVPRGPPSPGNP
# What was measured:
# Assay type in all cases: biochemical
# [1] = target: T1, Recombinant human hexosaminidase A; assay: Action of hexosaminidase A on ASB substrate, UHPLC-MS/MS; settings: 1 mM ASB substrate, 100 mM ammonium formate pH 5.6, 5 hrs at 37° C.
# Method: The mixture includes 1 mM ASB substrate in 100 mM ammonium formate buffer, pH 5.6 containing the indicated amount of hexosaminidase. After incubation for 5 hrs at 37° C., the mixture is analyzed by UHPLC-MS/MS. The aglycone signal is not due to contamination of the substrate with aglycone because no aglycone is seen when hexosaminidase A is omitted. The aglycone is not the result of cleavage of the ASB in the electrospray ionization source of the mass spectrometer because the amount of aglycone increases with increasing hexosaminidase A (FIG. 1), and the UHPLC retention time of the aglycone matches that of an authentic aglycone, and this is different than the retention time of the ASB substrate. Thus, hexosaminidase A acts on the ASB substrate to produce algycone. Because hexosaminidase A acts on ASB substrate to produce algycone, this enzyme cannot be used in a coupled assay of ASB, and furthermore it is important to inhibit hexosaminidase A so as not to generate aglycone directly from the ASB substrate.
# arylsulfatase B (ASB) = target: T4, arylsulfatase B (ASB) (Homo sapiens, UniProt P15848); assay: ASB (MPS-VI) assay with beta-NGA and Z-PUG-NAc, UHPLC-MS/MS
# T4 construct: from tissue; host or cells: dried blood spot (3 mm punch)
# Method: Having established the action of human hexosaminidase A on the ASB substrate, the ASB assay was developed, using the same approach developed for GALNS, namely adding beta-NGA and Z-PUG-NAc. The experiments were carried out as for the GALNS assays (see Example 10) but with 1 mM ASB substrate replacing the GALNS substrate.
# (§1) Experiment 1. A 3 mm punch of a dried blood spot from a random newborn is incubated with 0.03 mL of assay cocktail consisting of 1 mM GALNS substrate in 50 mM ammonium formate pH 4.0 containing 7.5 mM barium acetate, 5.0 mM cerium acetate, 1 mM Z-PUG-NAc, and 0.01 mg of bacterial beta-N-acetylgalactosaminidase. The mixture also contains 0.005 mM internal standard. After 16 hrs at 37° C. with shaking, the mixture is quenched with 0.12 mL of acetonitrile and the sample plate is centrifuged to pellet the precipitate. Supernatant (0.12 mL) is transferred to a new plate, and 0.12 mL of water is added. The plate is placed on the autosampler of the UHPLC-MS/MS instrument (Waters Xevo TQ MS/MS with a Waters Acquity UHPLC system). A portion of the sample (0.01 mL) is injected, and the GALNS product (substrate minus sulfate), the internal standard, and the aglycones derived from the GALNS product and internal standard are quantified by multiple reaction monitoring (MS/MS). Note the internal standard added, like the GALNS product, is converted to its aglycone by the addition of bacterial beta-N-acetylgalactosaminidase.
# human hexosaminidase A = target: T2, human hexosaminidase A; assay: Block of endogenous hexosaminidase A in dried blood spots in the GALNS assay; settings: 1 mM Z-PUG-NAc in assay cocktail with dried blood spot
# Method: as §1
# [2] = target: T3, iduronic acid 2-sulfatase; assay: Sulfatase assay for MPS-II with second enzyme alpha-L-iduronidase; settings: with iduronidase versus without
# Method: In the assay, a second enzyme, alpha-L-iduronidase (a glycohydrolase) is added to the assay cocktail, which converts Initial MPS-II Product to Final MPS-II Product by removing the iduronic acid residue leaving the aglycone. The iduronidase can be present in the assay cocktail that is incubated with the dried blood spot, or it can be added after the first incubation with the dried blood spot followed by a second incubation period. The amount of iduronidase added is sufficient to convert all Initial MPS-II Product to Final MPS-II Product. The assay cocktail also contains Initial MPS-II Internal Standard (same as Initial MPS-II Product but, for example, with 5 deuteriums in the benzoyl group), which is converted by iduronidase to Final MPS-II Internal Standard. Both Final MPS-II Product and Final MPS-II Internal Standard are detected by tandem mass spectrometry, which enables the amount of Final MPS-II Product to be quantified. […] The analytes are detected by multiple reaction monitoring.
# Thus the assay sensitivity has been improved by about 100-fold. […] With the assay of the invention, this desulfation is of no concern because the product being detected is the aglycone (Final MPS-II Product).
# [3] = Expt. 1: 3 mm dried blood spot punch, 1 mM Z-PUG-NAc, 0.01 mg beta-NGA
# [4] = Expt. 2: 3 mm filter paper punch (no blood), 1 mM Z-PUG-NAc, 0.01 mg of bacterial enzyme
# [5] = Expt. 3: 3 mm dried blood spot punch, 1 mM Z-PUG-NAc, no beta-NGA
# [6] = Expt. 4: 3 mm filter paper punch (no blood), nothing added
# T4 sequence (P15848 37-533): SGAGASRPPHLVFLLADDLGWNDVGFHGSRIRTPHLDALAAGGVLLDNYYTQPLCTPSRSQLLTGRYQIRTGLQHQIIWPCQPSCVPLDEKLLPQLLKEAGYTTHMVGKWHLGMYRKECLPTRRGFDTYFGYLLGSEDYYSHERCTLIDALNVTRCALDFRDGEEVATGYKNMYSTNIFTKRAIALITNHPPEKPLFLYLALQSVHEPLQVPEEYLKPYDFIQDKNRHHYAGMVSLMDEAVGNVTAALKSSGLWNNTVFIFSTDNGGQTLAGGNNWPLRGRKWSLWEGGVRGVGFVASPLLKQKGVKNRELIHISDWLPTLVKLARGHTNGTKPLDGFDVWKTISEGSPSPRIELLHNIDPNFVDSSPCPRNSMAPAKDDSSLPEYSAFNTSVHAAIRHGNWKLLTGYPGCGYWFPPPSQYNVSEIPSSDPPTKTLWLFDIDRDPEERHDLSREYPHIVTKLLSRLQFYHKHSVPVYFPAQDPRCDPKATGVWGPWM
molecule,measurement,setting,value
CCCCC(=O)N(CCCCCNC(=O)c1ccccc1)CCC(=O)Nc1ccc(OC2OC(CO)C(OS(=O)(=O)O)C(O)C2NC(C)=O)cc1 (centres unmarked) [ASB substrate],aglycone release from substrate by hexosaminidase A,[1],acts on the ASB substrate to liberate aglycone
same,ASB product (substrate without sulfate) peak area,arylsulfatase B (ASB); [3],"154,000"
same,aglycone peak area (product without sugar),arylsulfatase B (ASB); [3],"1,570,000"
same,ASB product (substrate without sulfate) peak area,arylsulfatase B (ASB); [4],404
same,aglycone peak area (product without sugar),arylsulfatase B (ASB); [4],"58,300"
same,ASB product (substrate without sulfate) peak area,arylsulfatase B (ASB); [5],"371,000"
same,aglycone peak area (product without sugar),arylsulfatase B (ASB); [5],"39,900"
same,ASB product (substrate without sulfate) peak area,arylsulfatase B (ASB); [6],"3,340 and 3,430"
same,aglycone peak area (product without sugar),arylsulfatase B (ASB); [6],"33,800"
"CC(=O)N[C@H]1/C(=N/OC(=O)Nc2ccccc2)O[C@H](CO)[C@@H](O)[C@@H]1O [Z-PUG-NAc, (Z)—O-(2-acetamido-2-deoxy-D-glucopyranosylidene)-amino N-phenylcarbamate]",inhibition of hexosaminidase A,human hexosaminidase A,fully block hexosaminidase A
B1,improvement of assay sensitivity by second enzyme,[2],about 100 fold
